The values below come from ChEMBL document CHEMBL3091344, “17(E)-picolinylidene androstane derivatives as potential inhibitors of prostate cancer cell growth: antiproliferative activity and molecular docking studies” (Bioorg Med Chem, 2013).

Assay [1] has as its system MDA-MB-231. In words: Cytotoxicity against ER-negative human MDA-MB-231 cells assessed as growth inhibition after 48 hrs by SRB assay. The assay is classed as functional, cell-based. The conditions noted are these: MDA-MB-231, 48 h.
Assay [2] relates to MCF7. Description: Cytotoxicity against ER-positive human MCF7 cells assessed as growth inhibition after 48 hrs by SRB assay. The note with it: MCF7, 48 h. It counts as functional, cell-based.
The subject of assay [3] is MRC5. Description: Cytotoxicity against human MRC5 cells assessed as growth inhibition after 48 hrs by SRB assay. The note with it: MRC5, 48 h. The assay is classed as cell-based.
The subject of assay [4] is PC-3. Description: Cytotoxicity against human PC3 cells assessed as growth inhibition after 48 hrs by SRB assay. The conditions noted are these: PC-3, 48 h. It counts as functional, cell-based.
The test system of assay [5] is MCF7. Description: Cytotoxicity against ER-positive human MCF7 cells assessed as growth inhibition after 48 hrs by MTT assay. It counts as functional, cell-based. The note with it: MCF7, 48 h.
Assay [6] relates to PC-3. In words: Cytotoxicity against human PC3 cells assessed as growth inhibition after 48 hrs by MTT assay. It counts as functional, cell-based. The note with it: PC-3, 48 h.
A further assay deals with HeLa. In words: Cytotoxicity against human HeLa cells assessed as growth inhibition after 48 hrs by MTT assay. The assay is classed as functional, cell-based.
In assay [7] the test system is MRC5. In words: Cytotoxicity against human MRC5 cells assessed as growth inhibition after 48 hrs by MTT assay. The conditions noted are these: MRC5, 48 h. The assay is classed as cell-based.
The test system of another assay is HT-29. In words: Cytotoxicity against human HT-29 cells assessed as growth inhibition after 48 hrs by MTT assay. The conditions noted are these: HT-29, 48 h. The assay is classed as functional, cell-based.
Assay [8] deals with MDA-MB-231. In words: Cytotoxicity against ER-negative human MDA-MB-231 cells assessed as growth inhibition after 48 hrs by MTT assay. The assay is classed as functional, cell-based. The conditions noted are these: MDA-MB-231, 48 h.

On to `C[C@]12CCC(=O)C=C1CC[C@@H]1[C@@H]2CC[C@]2(C)/C(=C/c3ccccn3)CC[C@@H]12`, for which the IC50 in the assay on MDA-MB-231 [1] was greater than 100 µM; in the assay on MCF7 [2], greater than 100 µM; in the assay on MRC5 [3], greater than 100 µM; with PC-3 [4], 12.9 µM.
For the compound `C#CCC[C@@]1(C)C(=O)CC[C@@H]2[C@@H]1CC[C@@]1(C)[C@H]2CC[C@@]1(O)Cc1ccccn1`, the IC50 in the assay with MCF7 [5] was greater than 100 µM; in the assay on PC-3 [6], greater than 100 µM; in the assay on HeLa it was greater than 100 µM; in the assay on MRC5 [7], greater than 100 µM; in the assay with HT-29 it was 6.5 µM; with MDA-MB-231 [8], greater than 100 µM.
Turning to `C[C@]12CC[C@H]3[C@@H](CC[C@@]4(O)C=CCC[C@]34C)[C@@H]1CC/C2=C\c1ccccn1`, the IC50 in the assay on MCF7 [5] is greater than 100 µM; with PC-3 [6] it was greater than 100 µM; in the assay on HeLa, 49.4 µM; in the assay with MRC5 [7], greater than 100 µM; with HT-29, 57.2 µM; in the assay on MDA-MB-231 [8], greater than 100 µM.
In the case of `C[C@]12CC[C@H]3[C@@H](CC[C@]45O[C@H]4C(=O)CC[C@]35C)[C@@H]1CC/C2=C\c1ccccn1`, the concentration for half-maximal inhibition (IC50) with MCF7 [5] is 50.7 µM; in the assay with PC-3 [6] it was 14.3 µM; in the assay with MRC5 [7] it was greater than 100 µM; in the assay on MDA-MB-231 [8] it was 88.3 µM.
As for `C[C@]12CC[C@H]3[C@@H](CC[C@@]4(O)C=CCC[C@]34C)[C@@H]1CC[C@@]2(O)Cc1ccccn1`, the IC50 in the assay on MCF7 [5], in the assay on PC-3 [6], in the assay with HeLa, in the assay on MRC5 [7], in the assay with HT-29 and in the assay on MDA-MB-231 [8] was greater than 100 µM throughout.
Take `C[C@]12CC[C@H]3[C@@H](CC[C@]45O[C@H]4C(=O)CC[C@]35C)[C@@H]1CC[C@@]2(O)Cc1ccccn1`: the IC50 is greater than 100 µM with MCF7 [5], 65.5 µM in the assay with PC-3 [6], greater than 100 µM with MRC5 [7] and 10.4 µM in the assay with MDA-MB-231 [8].
For the compound `C[C@]12CC/C(=N\N)C=C1CC[C@@H]1[C@@H]2CC[C@]2(C)/C(=C/c3ccccn3)CC[C@@H]12`, the IC50 was 13.6 µM in the assay with MCF7 [5]; 5.9 µM in the assay on PC-3 [6]; greater than 100 µM with HeLa; greater than 100 µM in the assay with MRC5 [7]; 51.7 µM in the assay on HT-29; 17.1 µM with MDA-MB-231 [8].
Regarding `C[C@]12CC/C(=N\N)C=C1CC[C@@H]1[C@@H]2CC[C@@]2(C)[C@H]1CC[C@@]2(O)Cc1ccccn1`, the IC50 in the assay with MCF7 [5] is 6.3 µM; in the assay with PC-3 [6], greater than 100 µM; in the assay on HeLa it was greater than 100 µM; in the assay on MRC5 [7], greater than 100 µM; with HT-29, greater than 100 µM; in the assay on MDA-MB-231 [8] it was 32.5 µM.
For the compound `C[C@]12CCC(=O)C=C1CC[C@@H]1[C@@H]2CC[C@@]2(C)[C@H]1CC[C@@]2(O)Cc1ccccn1`, the 50% inhibitory concentration (IC50) in the assay with MDA-MB-231 [1], with MCF7 [2], in the assay with MRC5 [3] and in the assay on PC-3 [4] was greater than 100 µM each time.
As for `C[C@]12CC[C@H](O)CC1=CC[C@@H]1[C@@H]2CC[C@]2(C)C(c3cccnc3)=CC[C@@H]12` [ABIRATERONE], the IC50 in the assay with PC-3 [6] was determined as 9.32 µM.
`COc1cccc2c1C(=O)c1c(O)c3c(c(O)c1C2=O)C[C@@](O)(C(=O)CO)C[C@@H]3O[C@H]1C[C@H](N)[C@H](O)[C@H](C)O1` [DOXORUBICIN]: the concentration for half-maximal inhibition (IC50) was 0.75 µM in the assay on MCF7 [5] and 0.32 µM in the assay with HT-29.
With `C[C@]12CCC(=O)C(O)=C1CC[C@@H]1[C@@H]2CC[C@]2(C)C(=O)CC[C@@H]12` [FORMESTANE], the IC50 in the assay on MCF7 [5], in the assay on MRC5 [7] and with HT-29 was greater than 100 µM in each case.
